# From ChEMBL document CHEMBL1255495, “Experimental conditions that enhance potency of an antibacterial oligo-acyl-lysyl” (2010)
# Activity calls are given as the source filed them. No cut-off for these calls is given here.
# Columns and labels:
# Listeria monocytogenes [1] = test: Ratio of MIC for Listeria monocytogenes ATCC 19115 in presence of 85 mM NaCl to MIC for Listeria monocytogenes ATCC 19115 at pH 8.5 after 24 hrs at 48 degC in presence of 85 mM NaCl; format: functional
# Escherichia coli [2] = test: Antibacterial activity against Escherichia coli O157:H7 ATCC 43894 after 24 hrs at 37 degC by microdilution method; format: functional; conditions: O157:H7 ATCC 43894, 24 h
# Staphylococcus aureus [3] = test: Antibacterial activity against methicillin-resistant Staphylococcus aureus isolate 15903 after 24 hrs by microdilution method in presence of 260 mM NaCl; format: functional; conditions: isolate 15903, 24 h
# Listeria monocytogenes [4] = test: Antibacterial activity against Listeria monocytogenes ATCC 19115 at pH 5.5 after 24 hrs by microdilution method; format: functional; conditions: ATCC 19115, 24 h
# Escherichia coli [5] = test: Antibacterial activity against Escherichia coli O157:H7 ATCC 43894 after 72 hrs at 4 degC by microdilution method; format: functional; conditions: O157:H7 ATCC 43894, 72 h
# Escherichia coli [6] = test: Antibacterial activity against Escherichia coli O157:H7 ATCC 43894 after 24 hrs at 25 degC by microdilution method; format: functional; conditions: O157:H7 ATCC 43894, 24 h
# Listeria monocytogenes [7] = test: Antibacterial activity against Listeria monocytogenes ATCC 19115 after 24 hrs by microdilution method in presence of 170 mM NaCl; format: functional; conditions: ATCC 19115, 24 h
# Escherichia coli [8] = test: Antibacterial activity against Escherichia coli O157:H7 ATCC 43894 after 24 hrs by microdilution method in presence of 515 mM NaCl; format: functional; conditions: O157:H7 ATCC 43894, 24 h
# Escherichia coli [9] = test: Antibacterial activity against Escherichia coli O157:H7 ATCC 43894 after 24 hrs by microdilution method in presence of 260 mM NaCl; format: functional; conditions: O157:H7 ATCC 43894, 24 h
# Escherichia coli [10] = test: Ratio of MIC for Escherichia coli O157:H7 ATCC 43894 in presence of 85 mM NaClsto MIC for Escherichia coli O157:H7 ATCC 43894 at pH 8.5 after 24 hrs at 48 degC in presence of 85 mM NaCl; format: functional
# Escherichia coli [11] = test: Antibacterial activity against Escherichia coli O157:H7 ATCC 43894 after 24 hrs by microdilution method in presence of 80 mM MgCl2; format: functional; conditions: O157:H7 ATCC 43894, 24 h
# Staphylococcus aureus [12] = test: Antibacterial activity against Staphylococcus aureus ATCC 25923 at pH 7 after 24 hrs by microdilution method; format: functional; conditions: ATCC 25923, 24 h
# Listeria monocytogenes [13] = test: Antibacterial activity against Listeria monocytogenes ATCC 19115 after 72 hrs at 4 degC by microdilution method; format: functional; conditions: ATCC 19115, 72 h
# Listeria monocytogenes [14] = test: Antibacterial activity against Listeria monocytogenes ATCC 19115 after 24 hrs at 48 degC by microdilution method; format: functional; conditions: ATCC 19115, 24 h
# Listeria monocytogenes [15] = test: Antibacterial activity against Listeria monocytogenes ATCC 19115 after 24 hrs by microdilution method in presence of 515 mM NaCl; format: functional; conditions: ATCC 19115, 24 h
# Escherichia coli [16] = test: Antibacterial activity against Escherichia coli O157:H7 ATCC 43894 after 24 hrs by microdilution method in presence of 1030 mM NaCl; format: functional; conditions: O157:H7 ATCC 43894, 24 h
# Escherichia coli [17] = test: Antibacterial against Escherichia coli O157:H7 ATCC 43894 at pH 8.5 after 24 hrs at 48 degC by microdilution method in presence of 85 mM NaCl; format: functional; conditions: O157:H7 ATCC 43894, 24 h
# Staphylococcus aureus [18] = test: Antibacterial activity against methicillin-resistant Staphylococcus aureus isolate 15903 at pH 8.5 after 24 hrs by microdilution method; format: functional; conditions: isolate 15903, 24 h
# Staphylococcus aureus [19] = test: Antibacterial activity against methicillin-resistant Staphylococcus aureus ATCC 43300 at pH 7 after 24 hrs by microdilution method; format: functional; conditions: ATCC 43300, 24 h
# Escherichia coli [20] = test: Antibacterial activity against Escherichia coli O157:H7 ATCC 43894 at pH 5.5 after 24 hrs by microdilution method; format: functional; conditions: O157:H7 ATCC 43894, 24 h
# Escherichia coli [21] = test: Antibacterial activity against Escherichia coli O157:H7 ATCC 43894 at pH 8.5 after 24 hrs by microdilution method; format: functional; conditions: O157:H7 ATCC 43894, 24 h
# Staphylococcus aureus [22] = test: Antibacterial against methicillin-resistant Staphylococcus aureus isolate 15903 at pH 8.5 after 24 hrs at 48 degC by microdilution method in presence of 85 mM NaCl; format: functional; conditions: isolate 15903, 24 h
# Escherichia coli [23] = test: Antibacterial activity against Escherichia coli O157:H7 ATCC 43894 after 24 hrs by microdilution method in presence of 20 mM MgCl2; format: functional; conditions: O157:H7 ATCC 43894, 24 h
# Lipid bilayer = test: Binding affinity to phospholipid membrane model at pH 7 by surface plasmon resonance in presence of 140 mM NaCl
# Staphylococcus aureus [24] = test: Antibacterial activity against methicillin-resistant Staphylococcus aureus isolate 15903 after 24 hrs at 37 degC by microdilution method; format: functional; conditions: isolate 15903, 24 h
# Listeria monocytogenes [25] = test: Antibacterial activity against Listeria monocytogenes ATCC 19115 at pH 7 after 24 hrs by microdilution method; format: functional; conditions: ATCC 19115, 24 h
# Escherichia coli [26] = test: Antibacterial activity against Escherichia coli O157:H7 ATCC 43894 after 24 hrs by microdilution method in presence of 85 mM NaCl; format: functional; conditions: O157:H7 ATCC 43894, 24 h
# Escherichia coli [27] = test: Antibacterial activity against Escherichia coli O157:H7 ATCC 43894 after 24 hrs by microdilution method in presence of 170 mM NaCl; format: functional; conditions: O157:H7 ATCC 43894, 24 h
# Staphylococcus aureus [28] = test: Antibacterial activity against Staphylococcus aureus ATCC 29213 at pH 7 after 24 hrs by microdilution method; format: functional; conditions: ATCC 29213, 24 h
compound,measurement,setting,value
CCCCCCCCCCCC(=O)N[C@@H](CCCCN)C(=O)NCCCCCCCC(=O)N[C@@H](CCCCN)C(=O)NCCCCCCCC(=O)N[C@@H](CCCCN)C(=O)NCCCCCCCC(=O)N[C@@H](CCCCN)C(=O)NCCCCCCCC(=O)N[C@@H](CCCCN)C(=O)NCCCCCCCC(=O)N[C@@H](CCCCN)C(=O)NCCCCCCCC(=O)N[C@@H](CCCCN)C(=O)NCCCCCCCC(=O)N[C@@H](CCCCN)C(N)=O,Ratio,Listeria monocytogenes [1],32
same,MIC,Escherichia coli [2],3.1 µM
same,MIC,Staphylococcus aureus [3],> 50 µM
same,MIC,Listeria monocytogenes [4],3.1 µM
same,MIC,Escherichia coli [5],6.3 µM
same,MIC,Escherichia coli [6],3.1 µM
same,MIC,Listeria monocytogenes [7],3.1 µM
same,MIC,Escherichia coli [8],6.3 µM
same,MIC,Escherichia coli [9],6.3 µM
same,Ratio,Escherichia coli [10],16
same,MIC,Escherichia coli [11],12.5 µM
same,MIC,Staphylococcus aureus [12],25 µM
same,MIC,Listeria monocytogenes [13],3.1 µM
same,MIC,Listeria monocytogenes [14],1.6 µM
same,MIC,Listeria monocytogenes [15],6.3 µM
same,MIC,Escherichia coli [16],12.5 µM
same,MIC,Escherichia coli [17],0.2 µM
same,MIC,Staphylococcus aureus [18],1.6 µM
same,MIC,Staphylococcus aureus [19],50 µM
same,MIC,Escherichia coli [20],3.1 µM
same,MIC,Escherichia coli [21],1.6 µM
same,MIC,Staphylococcus aureus [22],0.8 µM
same,MIC,Escherichia coli [23],3.1 µM
same,Activity,Lipid bilayer,inactive
same,MIC,Staphylococcus aureus [24],12.5 µM
same,MIC,Listeria monocytogenes [25],1.6 µM
same,MIC,Escherichia coli [26],3.1 µM
same,MIC,Escherichia coli [27],3.1 µM
same,MIC,Staphylococcus aureus [28],50 µM
